In US10669242B2 (priority 2016, dated 2020):

Target: T1, recombinant glucosyltransferase domain of C. difficile Toxin B/TcdB (Clostridioides difficile, UniProt P18177)
T1 construct: 6-His (C); purchased R&D Systems 6246-GT
Assay: biochemical
Details: not given

T1 sequence (P18177 1-543): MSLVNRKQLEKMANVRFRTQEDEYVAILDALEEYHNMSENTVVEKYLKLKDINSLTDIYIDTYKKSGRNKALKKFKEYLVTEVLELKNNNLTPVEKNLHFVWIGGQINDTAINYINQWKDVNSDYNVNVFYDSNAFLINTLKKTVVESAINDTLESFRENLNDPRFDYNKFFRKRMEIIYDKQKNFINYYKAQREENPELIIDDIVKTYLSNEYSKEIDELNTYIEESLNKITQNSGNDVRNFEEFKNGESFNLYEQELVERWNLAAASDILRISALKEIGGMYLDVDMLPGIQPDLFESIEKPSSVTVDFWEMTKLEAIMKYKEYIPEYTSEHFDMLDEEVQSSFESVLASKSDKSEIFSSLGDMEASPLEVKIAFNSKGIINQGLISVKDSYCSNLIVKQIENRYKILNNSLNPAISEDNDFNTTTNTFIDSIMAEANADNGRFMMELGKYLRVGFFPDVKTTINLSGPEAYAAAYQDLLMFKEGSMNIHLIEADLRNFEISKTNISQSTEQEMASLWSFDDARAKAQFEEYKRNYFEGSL

`CN(C)CCC(=O)Nc1cc(CN2C(=O)c3ccc(Cl)cc3NC(=O)[C@H]2Cc2ccccn2)ccc1C(=O)O` [Example 22k] and `O=C(CO)Nc1cc(CN2C(=O)c3ccc(Cl)cc3NC(=O)[C@H]2Cc2ccccn2)ccc1C(=O)O` [Example 22o] fall in the same range of IC50: 0.1 to 0.999 µM for the first, 0.1 to 0.999 µM for the second.

`CN1CCC(CC(=O)Nc2cc(CN3C(=O)c4ccc(Cl)cc4NC(=O)[C@H]3Cc3ccccn3)ccc2C(=O)O)CC1` [Example 22l] and `O=C(CN1CCCC1)Nc1cc(CN2C(=O)c3ccc(Cl)cc3NC(=O)[C@H]2Cc2ccccn2)ccc1C(=O)O` [Example 22n] fall in the same range of IC50: 0.1 to 0.999 µM for the first, 0.1 to 0.999 µM for the second.

Compared with `O=C(O)c1ccc(CN2C(=O)c3ccc(Cl)cc3NC(=O)[C@H]2Cc2ccccn2)cc1NC(=O)C1CCOCC1` [Example 22m], `O=C(Nc1ccccn1)c1ccc(CN2C(=O)c3ccc(Cl)cc3NC(=O)C2CC2CCOCC2)cc1` (centres unmarked) [Example 35e] is higher in IC50: 0.1 to 0.999 µM for the first, 1 to 10 µM for the second. The first is the more potent here.

First: Nc1ccc(CN2C(=O)c3ccc(Cl)cc3NC(=O)[C@H]2Cc2ccccn2)cc1 [Example 23a, (R)-4-(4-Aminobenzyl)-8-chloro-3-(pyridin-2-ylmethyl)-3,4-dihydro-1H-benzo[e][1,4]diazepine-2,5-dione]
Second: CS(=O)(=O)Nc1ccc(CN2C(=O)c3ccc(Cl)cc3NC(=O)[C@H]2Cc2ccccn2)cc1 [Example 30a, (R)—N-(4-((8-Chloro-2,5-dioxo-3-(pyridin-2-ylmethyl)-2,3-dihydro-1H-benzo[e][1,4]diazepin-4(5H)-yl)methyl)phenyl)methanesulfonamide]
The IC50 of the first is lower: 1 to 10 µM for the first, 10 to 35 µM for the second.

First: Cc1cc(CN2C(=O)c3ccc(Cl)cc3NC(=O)[C@H]2Cc2ccccn2)cc(C)c1N [Example 24a, (R)-4-(4-Amino-3,5-dimethylbenzyl)-8-chloro-3-(pyridin-2-ylmethyl)-3,4-dihydro-1H-benzo[e][1,4]diazepine-2,5-dione]
Second: Cc1cc(CN2C(=O)c3ccc(Cl)cc3NC(=O)[C@H]2Cc2ccccn2)cc(C)c1NC(=O)c1ccccn1 [Example 26k]
The IC50 of the first is higher: 10 to 35 µM for the first, 0.1 to 0.999 µM for the second. The second is the more potent here.

`Cc1ccc(C(=O)N[C@H]2CC[C@H](CN3C(=O)c4ccc(Cl)cc4NC(=O)[C@H]3Cc3ccccn3)CC2)nc1` [Example 25a, N-((1R,4r)-4-(((R)-8-Chloro-2,5-dioxo-3-(pyridin-2-ylmethyl)-2,3-dihydro-1H-benzo[e][1,4]diazepin-4(5H)-yl)methyl)cyclohexyl)-5-methylpicolinamide] and `O=C(N[C@H]1CC[C@H](CN2C(=O)c3ccc(Cl)cc3NC(=O)[C@H]2Cc2ccccn2)CC1)c1ccccn1` [Example 26j] fall in the same range of IC50: 0.1 to 0.999 µM for the first, 0.1 to 0.999 µM for the second.

Compared with `O=C(Nc1ccc(CN2C(=O)c3ccc(Cl)cc3NC(=O)[C@H]2Cc2cccnc2)cc1)c1ccccn1` [Example 26a, (R)—N-(4-((8-Chloro-2,5-dioxo-3-(pyridin-3-ylmethyl)-2,3-dihydro-1H-benzo[e][1,4]diazepin-4(5H)-yl)methyl)phenyl)picolinamide], `O=C(Nc1ccc(CN2C(=O)c3ccc(Cl)cc3NC(=O)[C@H]2Cc2ccccn2)cc1)c1ccccn1` [Example 26b] is lower in IC50: 0.1 to 0.999 µM for the first, less than 0.1 µM for the second. The second is the more potent here.

First: Cc1ccnc(C(=O)Nc2ccc(CN3C(=O)c4ccc(Cl)cc4NC(=O)[C@H]3Cc3ccccn3)cc2)c1 [Example 26c]
Second: O=C(Nc1ccc(CN2C(=O)c3ccc(Cl)cc3NC(=O)[C@H]2Cc2ccccn2)cc1)c1cc(Cl)ccn1 [Example 26h]
The IC50 of the first is lower: less than 0.1 µM for the first, 0.1 to 0.999 µM for the second. The first is the more potent here.

Compared with `Cc1cccc(C(=O)Nc2ccc(CN3C(=O)c4ccc(Cl)cc4NC(=O)[C@H]3Cc3ccccn3)cc2)n1` [Example 26d], `Cc1ccc(C(=O)Nc2ccc(CN3C(=O)c4ccc(Cl)cc4NC(=O)[C@H]3Cc3ccccn3)cc2)nc1` [Example 26f] is lower in IC50: 1 to 10 µM for the first, less than 0.1 µM for the second.

`Cc1cccnc1C(=O)Nc1ccc(CN2C(=O)c3ccc(Cl)cc3NC(=O)[C@H]2Cc2ccccn2)cc1` [Example 26e] and `O=C(Nc1ccc(CN2C(=O)c3ccc(Cl)cc3NC(=O)[C@H]2Cc2ccccn2)cc1)c1ncccc1Cl` [Example 26g] fall in the same range of IC50: 1 to 10 µM for the first, 1 to 10 µM for the second.

First: O=C(Nc1ccc(CN2C(=O)c3ccc(Cl)cc3NC(=O)[C@H]2Cc2ccccn2)cc1)c1ccc(Cl)cn1 [Example 26i]
Second: O=C(Nc1ccc(CN2C(=O)c3ccc(Cl)cc3NC(=O)[C@H]2Cc2ccccn2)cc1)c1ccncn1 [Example 27c]
The IC50 of the first is lower: less than 0.1 µM for the first, 0.1 to 0.999 µM for the second.

First: Cc1ccc(C(=O)Nc2c(C)cc(CN3C(=O)c4ccc(Cl)cc4NC(=O)[C@H]3Cc3ccccn3)cc2C)nc1 [Example 26l]
Second: Cc1cc(C(=O)Nc2ccc(CN3C(=O)c4ccc(Cl)cc4NC(=O)[C@H]3Cc3ccccn3)cc2)no1 [Example 27g]
The IC50 of the first is lower: 0.1 to 0.999 µM for the first, 1 to 10 µM for the second.

First: O=C(Nc1ccc(CN2C(=O)c3ccc(Cl)cc3NC(=O)[C@H]2Cc2ccccn2)cc1)c1cccnc1O [Example 27a, (R)—N-(4-((8-Chloro-2,5-dioxo-3-(pyridin-2-ylmethyl)-2,3-dihydro-1H-benzo[e][1,4]diazepin-4(5H)-yl)methyl)phenyl)-2-hydroxynicotinamide]
Second: O=C(Nc1ccc(CN2C(=O)c3ccc(Cl)cc3NC(=O)[C@H]2Cc2ccccn2)cc1)c1nccs1 [Example 27e]
The IC50 of the first is higher: 1 to 10 µM for the first, 0.1 to 0.999 µM for the second.

First: O=C(CO)Nc1ccc(CN2C(=O)c3ccc(Cl)cc3NC(=O)[C@H]2Cc2ccccn2)cc1 [Example 27b]
Second: O=C(CS)Nc1ccc(CN2C(=O)c3ccc(Cl)cc3NC(=O)[C@H]2Cc2ccccn2)cc1 [Example 29a, (R)—N-(4-((8-Chloro-2,5-dioxo-3-(pyridin-2-ylmethyl)-2,3-dihydro-1H-benzo[e][1,4]diazepin-4(5H)-yl)methyl)phenyl)-2-mercaptoacetamide]
The IC50 of the first is lower: 0.1 to 0.999 µM for the first, 1 to 10 µM for the second. The first is the more potent here.

First: O=C(Nc1ccc(CN2C(=O)c3ccc(Cl)cc3NC(=O)[C@H]2Cc2ccccn2)cc1)c1cnccn1 [Example 27d]
Second: O=C(Nc1ccc(CN2C(=O)c3ccc(Cl)cc3NC(=O)[C@H]2Cc2ccccn2)cc1)c1cscn1 [Example 27f]
The IC50 of the first is higher: 0.1 to 0.999 µM for the first, less than 0.1 µM for the second.

Compared with `O=C(Nc1ccc(CN2C(=O)c3ccc(Cl)cc3NC(=O)[C@H]2Cc2ccccn2)cc1)c1ncc[nH]1` [Example 27h], `Cn1ccnc1C(=O)Nc1ccc(CN2C(=O)c3ccc(Cl)cc3NC(=O)[C@H]2Cc2ccccn2)cc1` [Example 27i] is higher in IC50: less than 0.1 µM for the first, 0.1 to 0.999 µM for the second. The first is the more potent here.

First: Cn1cnc(C(=O)Nc2ccc(CN3C(=O)c4ccc(Cl)cc4NC(=O)[C@H]3Cc3ccccn3)cc2)c1 [Example 27k]
Second: Cn1cnc(C(=O)c2ccc(CN3C(=O)c4ccc(Cl)cc4NC(=O)[C@H]3Cc3ccccn3)cc2)c1 [Example 31d]
The IC50 of the first is lower: less than 0.1 µM for the first, 0.1 to 0.999 µM for the second. The first is the more potent here.

Compared with `O=C(Nc1cccc(CN2C(=O)c3ccc(Cl)cc3NC(=O)[C@H]2Cc2ccccn2)c1)c1ccccn1` [Example 28a, (R)—N-(3-((8-Chloro-2,5-dioxo-3-(pyridin-2-ylmethyl)-2,3-dihydro-1H-benzo[e][1,4]diazepin-4(5H)-yl)methyl)phenyl)picolinamide], `O=C1Nc2cc(Cl)ccc2C(=O)N(Cc2cccc(NS(=O)(=O)c3ccccn3)c2)[C@@H]1Cc1ccccn1` [Example 30c] is higher in IC50: less than 0.1 µM for the first, 1 to 10 µM for the second. The first is the more potent here.

Compared with `COCC(=O)Nc1cccc(CN2C(=O)c3ccc(Cl)cc3NC(=O)[C@H]2Cc2ccccn2)c1` [Example 28b], `COCC(=O)Nc1ccc(CN2C(=O)c3ccc(Cl)cc3NC(=O)[C@H]2Cc2ccccn2)cc1` [Example 30b] is higher in IC50: 1 to 10 µM for the first, 10 to 35 µM for the second.

Compared with `O=C(c1ccc(CN2C(=O)c3ccc(Cl)cc3NC(=O)[C@H]2Cc2ccccn2)cc1)c1cccc2cccnc12` [Example 31b], `O=C(c1ccc(CN2C(=O)c3ccc(Cl)cc3NC(=O)[C@H]2Cc2ccccn2)cc1)c1cccn2ncnc12` [Example 31f] is lower in IC50: 1 to 10 µM for the first, less than 0.1 µM for the second. The second is the more potent here.

First: Cn1ccnc1C(=O)c1ccc(CN2C(=O)c3ccc(Cl)cc3NC(=O)[C@H]2Cc2ccccn2)cc1 [Example 31c]
Second: Cc1cc(C(=O)c2ccc(CN3C(=O)c4ccc(Cl)cc4NC(=O)[C@H]3Cc3ccccn3)cc2)c2nccn2c1 [Example 31e]
The IC50 of the first is lower: 0.1 to 0.999 µM for the first, 1 to 10 µM for the second.

First: O=C1Nc2cc(Cl)ccc2C(=O)N(C[C@H]2CC[C@H](C(=O)c3cccc4cccnc34)CC2)[C@@H]1Cc1ccccn1 [Example 33a, (R)-8-Chloro-3-(pyridin-2-ylmethyl)-4-(((1r,4R)-4-(quinoline-8-carbonyl)cyclohexyl)methyl)-3,4-dihydro-1H-benzo[e][1,4]diazepine-2,5-dione]
Second: Cn1ccnc1C(=O)[C@H]1CC[C@H](CN2C(=O)c3ccc(Cl)cc3NC(=O)[C@H]2Cc2ccccn2)CC1 [Example 33c]
The IC50 of the first is higher: 10 to 35 µM for the first, 1 to 10 µM for the second.

Compared with `Cn1cnc(C(=O)[C@H]2CC[C@H](CN3C(=O)c4ccc(Cl)cc4NC(=O)[C@H]3Cc3ccccn3)CC2)c1` [Example 33d], `CC(C)C[C@@H]1C(=O)Nc2cc(Cl)ccc2C(=O)N1Cc1ccc(C(=O)Nc2ccccn2)cc1` [Example 35k] is higher in IC50: 0.1 to 0.999 µM for the first, 10 to 35 µM for the second.

Compared with `Cc1ccc(NC(=O)c2ccc(CN3C(=O)c4ccc(Cl)cc4NC(=O)[C@@H]3Cc3cscn3)cc2)nc1` [Example 35a, (S)-4-((8-Chloro-2,5-dioxo-3-(thiazol-4-ylmethyl)-2,3-dihydro-1H-benzo[e][1,4]diazepin-4(5H)-yl)methyl)-N-(5-methylpyridin-2-yl)benzamide], `Cc1ccc(NC(=O)c2ccc(CN3C(=O)c4ccc(Cl)cc4NC(=O)[C@H]3Cc3ccsc3)cc2)nc1` [Example 35b] is lower in IC50: 0.1 to 0.999 µM for the first, less than 0.1 µM for the second. The second is the more potent here.

First: O=C(Nc1ccccn1)c1ccc(CN2C(=O)c3ccc(Cl)cc3NC(=O)[C@H]2c2ccccc2)cc1 [Example 35c]
Second: O=C(Nc1ccccn1)c1ccc(CN2C(=O)c3ccc(Cl)cc3NC(=O)[C@H]2Cc2cccc(F)c2)cc1 [Example 35j]
The IC50 of the first is higher: 1 to 10 µM for the first, less than 0.1 µM for the second.

`COc1ccc(C[C@@H]2C(=O)Nc3cc(Cl)ccc3C(=O)N2Cc2ccc(C(=O)Nc3ccccn3)cc2)cc1` [Example 35d] and `O=C(Nc1ccccn1)c1ccc(CN2C(=O)c3cc(Cl)ccc3NC(=O)[C@H]2Cc2cccnc2)cc1` [Example 35h] fall in the same range of IC50: 0.1 to 0.999 µM for the first, 0.1 to 0.999 µM for the second.

`O=C(Nc1ccccn1)c1ccc(CN2C(=O)c3ccc(C(F)(F)F)cc3NC(=O)[C@H]2Cc2ccc(Cl)c(Cl)c2)cc1` [Example 35f] and `O=C(Nc1ccccn1)c1ccc(CN2C(=O)c3cccc(Cl)c3NC(=O)[C@H]2Cc2cccnc2)cc1` [Example 35i] fall in the same range of IC50: 1 to 10 µM for the first, 1 to 10 µM for the second.

In the case of `O=C(Nc1ccccn1)c1ccc(CN2C(=O)c3ccccc3NC(=O)[C@H]2Cc2cccnc2)cc1` [Example 35g], the IC50 is reported as 0.1 to 0.999 µM.

Same assay, conditions: read-out: TcdB UDP-Glucose hydrolysis activity (IC50, coded); UDP-Glucose hydrolysis assay, fluorescence polarization

Work on `O=C1Nc2cc(Cl)ccc2C(=O)N(C[C@H]2CC[C@H](C(=O)c3cccn4ccnc34)CC2)[C@@H]1Cc1ccccn1` [Example 34b] yielded an IC50 of less than 0.1 µM.
